# Compound: C(C(=O)C(=O)O)Br [Bromopyruvate] + COc1cc2c(Oc3ccc(NC(=O)C4(C(=O)Nc5ccc(F)cc5)CC4)cc3F)ccnc2cc1OCCCN1CCOCC1 [Foretinib] (partner 0.25 µM)
# Test: relative viability (nuclei count vs DMSO), 5 days (fraction); higher = more cells survive
# Conditions: first compound 1 µM
# Method in brief: (§1)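 The day after seeding in 1536-well plates, lung cancer cell lines were treated by pin tool with a single drug, or with a fixed anchor-drug dose together with five library-drug doses (not always all listed) in √10 steps. After 5 days, a combined fix-and-stain solution (final 0.05% Triton X-100, 1% formaldehyde, 1 ug/ml Hoechst) was added. Nuclei counted on 4× images gave relative viability as treated counts over vehicle counts, reported as the median of duplicate plates.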
row,Cell Line,relative viability
1,NCI-H1355,0.954
2,NCI-H322M,0.978
3,NCI-H1437,1.26
4,NCI-H1755,0.936
5,NCI-H2085,0.865
6,HCC-15,1
7,NCI-H1793,0.718
8,PC-3 [JPC-3],1.16
9,EKVX,0.83
10,LC-2-ad,0.922
11,NCI-H1944,0.954
12,NCI-H1975,0.988
13,ABC-1,1.09
14,NCI-H358,0.764
15,RERF-LC-KJ,0.843

# Same assay, conditions: first compound 3.162 µM
row,Cell Line,relative viability
1,NCI-H1355,0.966
2,NCI-H322M,0.964
3,NCI-H1437,1.28
4,NCI-H1755,0.923
5,NCI-H2085,1.06
6,HCC-15,1.05
7,NCI-H1793,0.821
8,PC-3 [JPC-3],1.03
9,EKVX,0.779
10,LC-2-ad,0.99
11,NCI-H1944,0.83
12,NCI-H1975,1.1
13,ABC-1,0.941
14,NCI-H358,0.71
15,RERF-LC-KJ,0.918

# Same assay, conditions: first compound 10 µM
row,Cell Line,relative viability
1,NCI-H1355,1.08
2,NCI-H322M,1.02
3,NCI-H1437,1.27
4,NCI-H1755,0.925
5,NCI-H2085,0.964
6,HCC-15,1.07
7,NCI-H1793,0.833
8,PC-3 [JPC-3],1.12
9,EKVX,0.929
10,LC-2-ad,1.01
11,NCI-H1944,1.03
12,NCI-H1975,1.03
13,ABC-1,1.14
14,NCI-H358,0.761
15,RERF-LC-KJ,0.962

# Same assay, conditions: first compound 31.62 µM
row,Cell Line,relative viability
1,NCI-H1355,0.909
2,NCI-H322M,0.99
3,NCI-H1437,1.28
4,NCI-H1755,0.909
5,NCI-H2085,0.779
6,HCC-15,1.08
7,NCI-H1793,0.736
8,PC-3 [JPC-3],0.976
9,EKVX,0.819
10,LC-2-ad,0.914
11,NCI-H1944,0.874
12,NCI-H1975,0.972
13,ABC-1,0.833
14,NCI-H358,0.598
15,RERF-LC-KJ,0.818

# Same assay, conditions: first compound 100 µM
row,Cell Line,relative viability
1,NCI-H1355,0.995
2,NCI-H322M,1.05
3,NCI-H1437,1.25
4,NCI-H1755,0.937
5,NCI-H2085,0.465
6,HCC-15,1.02
7,NCI-H1793,0.684
8,PC-3 [JPC-3],1.03
9,EKVX,1.34
10,LC-2-ad,0.988
11,NCI-H1944,0.913
12,NCI-H1975,0.927
13,ABC-1,0.95
14,NCI-H358,0.653
15,RERF-LC-KJ,0.869

# Compound: C(C(=O)C(=O)O)Br [Bromopyruvate] + Cc1cc(Nc2cc(N3CCN(C)CC3)nc(Sc3ccc(NC(=O)C4CC4)cc3)n2)n[nH]1 [Tozasertib] (partner 0.1 µM)
# Test: as above
# Conditions: first compound 1 µM
# Method in brief: as §1
row,Cell Line,relative viability
1,NCI-H1355,0.529
2,NCI-H322M,0.433
3,NCI-H1437,0.384
4,NCI-H1755,0.59
5,NCI-H2085,0.821
6,HCC-15,0.393
7,NCI-H1793,0.371
8,PC-3 [JPC-3],0.906
9,EKVX,0.427
10,LC-2-ad,0.45
11,NCI-H1944,0.224
12,NCI-H1975,0.733
13,ABC-1,0.178
14,NCI-H358,0.0956
15,RERF-LC-KJ,0.508

# Same assay, conditions: first compound 3.162 µM
row,Cell Line,relative viability
1,NCI-H1355,0.577
2,NCI-H322M,0.546
3,NCI-H1437,0.414
4,NCI-H1755,0.568
5,NCI-H2085,0.917
6,HCC-15,0.546
7,NCI-H1793,0.421
8,PC-3 [JPC-3],0.868
9,EKVX,0.391
10,LC-2-ad,0.475
11,NCI-H1944,0.266
12,NCI-H1975,0.811
13,ABC-1,0.195
14,NCI-H358,0.115
15,RERF-LC-KJ,0.491

# Same assay, conditions: first compound 10 µM
row,Cell Line,relative viability
1,NCI-H1355,0.516
2,NCI-H322M,0.495
3,NCI-H1437,0.447
4,NCI-H1755,0.495
5,NCI-H2085,0.84
6,HCC-15,0.286
7,NCI-H1793,0.36
8,PC-3 [JPC-3],0.937
9,EKVX,0.458
10,LC-2-ad,0.486
11,NCI-H1944,0.243
12,NCI-H1975,0.806
13,ABC-1,0.155
14,NCI-H358,0.104
15,RERF-LC-KJ,0.433

# Same assay, conditions: first compound 31.62 µM
row,Cell Line,relative viability
1,NCI-H1355,0.548
2,NCI-H322M,0.461
3,NCI-H1437,0.397
4,NCI-H1755,0.702
5,NCI-H2085,0.558
6,HCC-15,0.371
7,NCI-H1793,0.391
8,PC-3 [JPC-3],0.841
9,EKVX,0.377
10,LC-2-ad,0.438
11,NCI-H1944,0.283
12,NCI-H1975,0.729
13,ABC-1,0.146
14,NCI-H358,0.0945
15,RERF-LC-KJ,0.517

# Same assay, conditions: first compound 100 µM
row,Cell Line,relative viability
1,NCI-H1355,0.574
2,NCI-H322M,0.484
3,NCI-H1437,0.451
4,NCI-H1755,0.693
5,NCI-H2085,0.311
6,HCC-15,0.399
7,NCI-H1793,0.204
8,PC-3 [JPC-3],0.892
9,EKVX,0.421
10,LC-2-ad,0.428
11,NCI-H1944,0.273
12,NCI-H1975,0.646
13,ABC-1,0.166
14,NCI-H358,0.0906
15,RERF-LC-KJ,0.413

# Compound: C(C(=O)C(=O)O)Br [Bromopyruvate] + NC(=O)Nc1cc(-c2cccc(F)c2)sc1C(=O)N[C@H]1CCCNC1 [AZD7762] (partner 0.2 µM)
# Test: as above
# Conditions: first compound 1 µM
# Method in brief: as §1
row,Cell Line,relative viability
1,NCI-H1355,0.744
2,NCI-H322M,0.623
3,NCI-H1437,1.15
4,NCI-H1755,0.432
5,NCI-H2085,0.947
6,HCC-15,1.22
7,NCI-H1793,0.452
8,PC-3 [JPC-3],0.903
9,EKVX,0.818
10,LC-2-ad,0.885
11,NCI-H1944,0.579
12,NCI-H1975,0.825
13,ABC-1,0.532
14,NCI-H358,0.656
15,RERF-LC-KJ,0.97

# Same assay, conditions: first compound 3.162 µM
row,Cell Line,relative viability
1,NCI-H1355,0.882
2,NCI-H322M,0.58
3,NCI-H1437,1.1
4,NCI-H1755,0.476
5,NCI-H2085,1.01
6,HCC-15,1.25
7,NCI-H1793,0.536
8,EKVX,0.791
9,LC-2-ad,0.863
10,NCI-H1944,0.521
11,NCI-H1975,0.691
12,ABC-1,0.995
13,NCI-H358,0.578
14,RERF-LC-KJ,1.04

# Same assay, conditions: first compound 10 µM
row,Cell Line,relative viability
1,NCI-H1355,0.664
2,NCI-H322M,0.523
3,NCI-H1437,1.22
4,NCI-H1755,0.381
5,NCI-H2085,1.04
6,HCC-15,1.32
7,NCI-H1793,0.484
8,PC-3 [JPC-3],0.933
9,EKVX,0.662
10,LC-2-ad,0.881
11,NCI-H1944,0.576
12,NCI-H1975,0.721
13,ABC-1,0.951
14,NCI-H358,0.609
15,RERF-LC-KJ,1.29

# Same assay, conditions: first compound 31.62 µM
row,Cell Line,relative viability
1,NCI-H1355,0.737
2,NCI-H322M,0.581
3,NCI-H1437,1.12
4,NCI-H1755,0.51
5,NCI-H2085,0.991
6,HCC-15,1.25
7,NCI-H1793,0.428
8,EKVX,0.61
9,LC-2-ad,0.812
10,NCI-H1944,0.514
11,NCI-H1975,0.785
12,ABC-1,0.834
13,NCI-H358,0.505
14,RERF-LC-KJ,0.978

# Same assay, conditions: first compound 100 µM
row,Cell Line,relative viability
1,NCI-H1355,0.648
2,NCI-H322M,0.628
3,NCI-H1437,1.14
4,NCI-H1755,0.473
5,NCI-H2085,0.95
6,HCC-15,1.22
7,NCI-H1793,0.522
8,PC-3 [JPC-3],0.638
9,EKVX,0.693
10,LC-2-ad,0.799
11,NCI-H1944,0.54
12,NCI-H1975,0.703
13,ABC-1,0.734
14,NCI-H358,0.555
15,RERF-LC-KJ,0.889

# Compound: CC(O)(CS(=O)(=O)c1ccc(F)cc1)C(=O)Nc1ccc(C#N)c(C(F)(F)F)c1 [Bicalutamide] + Cc1nc(NC(=O)N2CCC[C@H]2C(N)=O)sc1-c1ccnc(C(C)(C)C(F)(F)F)c1 [Alpelisib] (partner 2 µM)
# Test: as above
# Conditions: first compound 0.08 µM
# Method in brief: as §1
row,Cell Line,relative viability
1,NCI-H1355,0.816
2,NCI-H322M,0.948
3,NCI-H1437,1.02
4,NCI-H1755,0.914
5,NCI-H2085,0.895
6,HCC-15,0.935
7,NCI-H1793,0.763
8,PC-3 [JPC-3],1.08
9,EKVX,0.846
10,LC-2-ad,0.99
11,NCI-H1944,0.852
12,NCI-H1975,0.642
13,ABC-1,1.03
14,NCI-H358,0.808
15,RERF-LC-KJ,0.756

# Same assay, conditions: first compound 0.253 µM
row,Cell Line,relative viability
1,NCI-H1355,0.793
2,NCI-H322M,0.772
3,NCI-H1437,0.988
4,NCI-H1755,0.903
5,NCI-H2085,1.04
6,HCC-15,0.897
7,NCI-H1793,0.636
8,PC-3 [JPC-3],1.01
9,EKVX,0.827
10,LC-2-ad,0.921
11,NCI-H1944,0.737
12,NCI-H1975,0.615
13,ABC-1,1.21
14,NCI-H358,0.904
15,RERF-LC-KJ,0.81

# Same assay, conditions: first compound 0.8 µM
row,Cell Line,relative viability
1,NCI-H1355,0.924
2,NCI-H322M,0.882
3,NCI-H1437,1.24
4,NCI-H1755,0.992
5,NCI-H2085,0.958
6,HCC-15,0.985
7,NCI-H1793,0.827
8,PC-3 [JPC-3],1.09
9,EKVX,1.01
10,LC-2-ad,0.852
11,NCI-H1944,0.869
12,NCI-H1975,0.795
13,ABC-1,0.997
14,NCI-H358,0.936
15,RERF-LC-KJ,0.948

# Same assay, conditions: first compound 2.53 µM
row,Cell Line,relative viability
1,NCI-H1355,0.853
2,NCI-H322M,0.74
3,NCI-H1437,0.954
4,NCI-H1755,0.853
5,NCI-H2085,0.879
6,HCC-15,0.86
7,NCI-H1793,0.687
8,PC-3 [JPC-3],1.07
9,EKVX,0.829
10,LC-2-ad,0.894
11,NCI-H1944,0.851
12,NCI-H1975,0.526
13,ABC-1,0.992
14,NCI-H358,0.992
15,RERF-LC-KJ,0.777

# — the supplement of paper PMC10307832
